In patent publication US20260317319A1, “NOVEL ERGOLINES AND METHODS OF TREATING MOOD DISORDERS” (Gilgamesh Pharma Inc., priority 2023, published 2026):
Where two headings read alike, the source gives them in different places.

What was measured:
5-HT1B receptor = target: T1, 5-HT1B receptor (Homo sapiens, UniProt P28222); assay: cAMP accumulation functional assay at 5-HT1B; assay type: cell-based; conditions: for Emax: read-out: 5-HT1B % Act @ Max Dose
T1 construct: expressed in transfected cells
How it was run: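 Stably transfected human 5-HT1B cells were incubated 60 min at room temperature, after which detection reagent was applied for another 60 min at RT. The read-out was cAMP accumulation, used as a measure of agonist activity.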

in vitro [1] = assay type: in vitro ADME, rat; conditions: rat, microsomes
Description: RLM Stability Pooled RLM from male Sprague-Dawley rats (Xenotech R1000) were used.

5-HT2A receptor [2] = target: T2, 5-HT2A receptor (Homo sapiens, UniProt P28223); assay: cell-based; assay type: cell-based; conditions: for Emax: read-out: 5-HT2A Arrestin % Act @ Max Dose
How it was run: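 Agonist activity expressed as percent of maximal control ligand signal after vehicle subtraction, from chemiluminescence (RLU). Cells carry ProLink-tagged 5-HT2A plus β-arrestin fused to β-gal deletion mutant; ligand-driven arrestin binding restores β-galactosidase activity (PathHunter). Cells pre-incubated at 37° C.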

5-HT2B receptor = target: T3, 5-HT2B receptor (Homo sapiens, UniProt P41595); assay: cell-based; assay type: cell-based
T3 construct: expressed in transfected cells; host or cells: HEK293, stably transfected
How it was run: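 FLIPR Tetra fluorescence read-out of calcium flux after compound addition. Receptor-expressing stable lines were used (HEK293 for 2A/2B; CHO with Gα15 for 1A), dye-loaded with Fluo-4 Direct and 2.5 mM final probenecid, 50 min at 37 °C.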

in vitro [3] = assay type: in vitro ADME, mouse; conditions: mouse, microsomes
Description: MLM Stability Pooled MLM from male CD-1 mice (BIOIVT M00501) were used.

in vitro [4] = assay type: in vitro ADME, human; conditions: human, microsomes
5-HT1A receptor = target: T4, 5-HT1A receptor (Homo sapiens, UniProt P08908); assay: cell-based; conditions: for Emax: CHO, read-out: 5-HT1A % Act @ Max Dose
T4 construct: expressed in transfected cells; host or cells: CHO cells, stably transfected
T4 sequence (P08908 1-422): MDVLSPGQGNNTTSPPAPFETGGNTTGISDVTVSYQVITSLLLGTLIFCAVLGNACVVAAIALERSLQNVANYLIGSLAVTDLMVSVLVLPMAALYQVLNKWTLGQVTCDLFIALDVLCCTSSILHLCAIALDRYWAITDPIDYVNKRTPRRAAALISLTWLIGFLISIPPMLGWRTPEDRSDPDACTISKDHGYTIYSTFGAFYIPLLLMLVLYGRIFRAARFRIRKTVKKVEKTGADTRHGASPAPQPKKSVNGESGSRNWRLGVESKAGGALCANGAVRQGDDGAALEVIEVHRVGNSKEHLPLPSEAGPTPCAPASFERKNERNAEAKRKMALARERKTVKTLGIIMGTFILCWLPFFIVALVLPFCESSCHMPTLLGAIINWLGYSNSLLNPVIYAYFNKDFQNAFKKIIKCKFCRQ
How it was run: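 Using HEK293 lines for the 5-HT2 subtypes and Gα15-coupled CHO cells for 5-HT1A, compounds were tested as agonists. Fluorescent Ca2+ signal followed dye loading (Fluo-4 Direct, 2.5 mM final probenecid, 50 min, 37 °C).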

5-HT2A receptor [5] = target: T2, 5-HT2A receptor; assay: cell-based; assay type: cell-based; parameters: expressed in transfected cells; host or cells: HEK293, stably transfected
How it was run: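 Agonism measured as calcium flux on FLIPR Tetra. Receptor lines: HEK293 for 5-HT2A and 5-HT2B, CHO with Gα15 for 5-HT1A; dye loading with Fluo-4 Direct and probenecid (2.5 mM final) ran 50 min at 37 °C before compound addition and signal reading.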

T1 sequence (P28222 whole entry): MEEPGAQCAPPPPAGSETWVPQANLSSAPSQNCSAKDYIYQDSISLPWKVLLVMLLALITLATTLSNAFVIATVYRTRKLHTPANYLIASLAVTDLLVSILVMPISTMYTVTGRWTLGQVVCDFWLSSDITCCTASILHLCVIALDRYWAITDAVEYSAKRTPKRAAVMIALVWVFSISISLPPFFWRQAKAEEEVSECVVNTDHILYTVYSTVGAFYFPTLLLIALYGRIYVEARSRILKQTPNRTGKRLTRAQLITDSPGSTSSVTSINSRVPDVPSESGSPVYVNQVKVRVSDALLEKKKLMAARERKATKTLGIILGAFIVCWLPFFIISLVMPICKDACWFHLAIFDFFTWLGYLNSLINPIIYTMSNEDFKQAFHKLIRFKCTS
T3 sequence (P41595 whole entry): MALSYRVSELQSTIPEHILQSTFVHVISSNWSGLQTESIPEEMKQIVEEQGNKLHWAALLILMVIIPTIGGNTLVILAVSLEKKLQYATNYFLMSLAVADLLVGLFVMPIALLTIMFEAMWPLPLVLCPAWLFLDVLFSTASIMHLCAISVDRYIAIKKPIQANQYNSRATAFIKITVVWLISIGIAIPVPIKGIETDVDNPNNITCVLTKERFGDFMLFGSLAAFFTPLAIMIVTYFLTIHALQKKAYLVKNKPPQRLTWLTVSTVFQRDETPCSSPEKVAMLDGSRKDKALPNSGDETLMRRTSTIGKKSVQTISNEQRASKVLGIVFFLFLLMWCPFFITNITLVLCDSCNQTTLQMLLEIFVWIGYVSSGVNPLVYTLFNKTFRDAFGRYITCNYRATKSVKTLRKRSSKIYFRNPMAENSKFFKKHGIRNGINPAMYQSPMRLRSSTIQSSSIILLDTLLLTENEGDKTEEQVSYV
T2 sequence (P28223 whole entry, the tested form may be a part): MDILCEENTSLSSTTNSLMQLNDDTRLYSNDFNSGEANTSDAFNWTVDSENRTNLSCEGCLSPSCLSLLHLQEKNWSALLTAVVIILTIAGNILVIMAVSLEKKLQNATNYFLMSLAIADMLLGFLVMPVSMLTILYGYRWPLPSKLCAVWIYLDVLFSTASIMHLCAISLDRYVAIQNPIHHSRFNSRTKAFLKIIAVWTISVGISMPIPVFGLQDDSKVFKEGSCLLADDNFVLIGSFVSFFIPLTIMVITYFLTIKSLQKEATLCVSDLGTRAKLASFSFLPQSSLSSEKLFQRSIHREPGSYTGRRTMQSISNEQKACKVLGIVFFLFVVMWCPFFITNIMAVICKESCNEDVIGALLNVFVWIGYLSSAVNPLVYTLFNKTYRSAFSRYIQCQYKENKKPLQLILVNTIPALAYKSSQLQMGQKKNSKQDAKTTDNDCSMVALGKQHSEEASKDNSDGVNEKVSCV

Compound: CCN(CC)C(=O)[C@@H]1C=C2c3cccc4[nH]cc(c34)C[C@H]2N(Cc2ccccc2)C1 [Compound 82, (6aR,9R)-7-benzyl-N,N-diethyl-4,6,6a,7,8,9-hexahydroindolo[4,3-fg]quinoline-9-carboxamide]
- EC50 (5-HT1B receptor; agonist, cAMP accumulation): 992 nM
- Emax (5-HT1B receptor; agonist, cAMP accumulation, max dose): 62.8%
- microsomal CLint (in vitro [1]; RLM (male Sprague-Dawley) 0.50 mg/mL, NADPH 1 mM, 1 μM compound, pH 7.4, 37° C., 60 min, read-out: Intrinsic clearance (Clint)): 190 µL/min/mg
- half-life (in vitro [1]; RLM (male Sprague-Dawley) 0.50 mg/mL, NADPH 1 mM, 1 μM compound, pH 7.4, 37° C., 60 min, read-out: half-life (t1/2)): 7.3 min
- EC50 (5-HT2A receptor [2]; agonist, beta-arrestin recruitment, PathHunter, read-out: 5-HT2A Arrestin EC50): 1.73 nM
- Emax (5-HT2A receptor [2]; agonist, beta-arrestin recruitment, max dose): 26.1%
- Emax (5-HT2B receptor; HEK293, agonist, Ca2+ flux, HEK293, max dose, read-out: 5-HT2B % Act @ Max Dose): 13.3%
- EC50 (5-HT2B receptor; agonist, Ca2+ flux, HEK293): > 10000 nM
- microsomal CLint (in vitro [3]; MLM (male CD-1) 0.50 mg/mL, NADPH 1 mM, 1 μM compound, pH 7.4, 37° C., 60 min, read-out: Intrinsic clearance (Clint)): 553 µL/min/mg
- half-life (in vitro [3]; MLM (male CD-1) 0.50 mg/mL, NADPH 1 mM, 1 μM compound, pH 7.4, 37° C., 60 min, read-out: half-life (t1/2)): 2.5 min
- microsomal CLint (in vitro [4]; HLM 0.50 mg/mL, NADPH 1 mM, 1 μM compound, pH 7.4, 37° C., 60 min, read-out: Intrinsic clearance (Clint)): 106 µL/min/mg
- half-life (in vitro [4]; HLM 0.50 mg/mL, NADPH 1 mM, 1 μM compound, pH 7.4, 37° C., 60 min, read-out: half-life (t1/2)): 13 min
- Emax (5-HT1A receptor; agonist, Ca2+ flux, CHO cells with Gα15, max dose): 27.8%
- EC50 (5-HT1A receptor; agonist, Ca2+ flux, CHO cells with Gα15): 3350 nM
- Emax (5-HT2A receptor [5]; HEK293, agonist, Ca2+ flux, HEK293, max dose, read-out: 5-HT2A % Act @ Max Dose): 61.4%
- EC50 (5-HT2A receptor [5]; agonist, Ca2+ flux, HEK293): 422 nM

Compound: CCN(CC)C(=O)[C@@H]1C=C2c3cccc4[nH]cc(c34)C[C@H]2N(C)C1 [LSD, lysergic acid diethylamide, reference compound]
- Emax (5-HT1B receptor): 98%
- half-life (t1/2) (in vitro [1]; pH 7.4): 60.2 min
- 5-HT2A arrestin agonist class (5-HT2A receptor [2]): partial agonists
- Emax (5-HT2A receptor [2]): 52.6%
- Emax (5-HT2B receptor; HEK293, read-out: 5-HT2B % Act @ Max Dose): 19.3%
- half-life (t1/2) (in vitro [3]; pH 7.4): 31.3 min
- half-life (t1/2) (in vitro [4]; pH 7.4): 71.6 min
- Emax (5-HT1A receptor): 91.4%
- Emax (5-HT2A receptor [5]; HEK293, read-out: 5-HT2A % Act @ Max Dose): 108%
